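Protocol summary: plate cells (96-well), add compound at 5 concentrations, incubate 48 h, interpolate endpoints linearly. GI50 = concentration required for 50% inhibition of growth.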 The source made the active and inactive calls. No stated cut-off is given here; in the data, active = GI50 up to about 1.1 µM and inactive = higher.
Experiments:
Test in all cases: NCI anticancer screen, dose series, 48 h
HT-29 = system: HT-29
SF-268 = system: SF-268
OVCAR-8 = system: OVCAR-8
SK-MEL-2 = system: SK-MEL-2
SNB-19 = system: SNB-19
Malme-3M = system: Malme-3M
SF-539 = system: SF-539
HL-60 = system: HL-60
M14 = system: M14
SK-MEL-5 = system: SK-MEL-5
IGROV-1 = system: IGROV-1
UACC-62 = system: UACC-62
NCI-H460 = system: NCI-H460
HCC 2998 = system: HCC 2998
CAKI-1 = system: CAKI-1
SK-MEL-28 = system: SK-MEL-28
OVCAR-4 = system: OVCAR-4
SNB-75 = system: SNB-75
RPMI-8226 = system: RPMI-8226
A549 = system: A549

| SMILES | GI50 (HT-29) | GI50 (SF-268) | GI50 (OVCAR-8) | GI50 (SK-MEL-2) | GI50 (SNB-19) | GI50 (Malme-3M) | GI50 (SF-539) | GI50 (HL-60) | GI50 (M14) | GI50 (SK-MEL-5) | GI50 (IGROV-1) | GI50 (UACC-62) | GI50 (NCI-H460) | GI50 (HCC 2998) | GI50 (CAKI-1) | GI50 (SK-MEL-28) | GI50 (OVCAR-4) | GI50 (SNB-75) | GI50 (RPMI-8226) | GI50 (A549) |
| --- | --- | --- | --- | --- | --- | --- | --- | --- | --- | --- | --- | --- | --- | --- | --- | --- | --- | --- | --- | --- |
| CC1(C)C(=O)/C=C\C(=O)C(C)(C)C2=CC=C(O2)C(C)(C)C(=O)C(Br)C(Br)C(=O)C(C)(C)C2=CC=C1O2 (stereo not given) | 41.8 µM (inactive) | > 66.5 µM (inactive) | 12 µM (inactive) | 99.1 µM (inactive) | > 100 µM (inactive) | 49.9 µM (inactive) | > 68.9 µM (inactive) | 4.76 µM (inactive) | 58.7 µM (inactive) | 45 µM (inactive) | > 52.6 µM (inactive) | 24 µM (inactive) | > 100 µM (inactive) | > 100 µM (inactive) | 58.6 µM (inactive) | 76.7 µM (inactive) | > 74.5 µM (inactive) | 51.6 µM (inactive) | 2.58 µM (inactive) | > 100 µM (inactive) |
| [C-]#[N+]C(=C\c1ccc(O)cc1)/C(=C/c1ccc(O)cc1)[N+]#[C-] [XANTOCILLIN] | 10.9 µM (inactive) | 2.96 µM (inactive) | 1.28 µM (inactive) | 2.07 µM (inactive) | 2.55 µM (inactive) | 0.871 µM (active) | 2.97 µM (inactive) | 1.07 µM (active) | 2.28 µM (inactive) | 2.04 µM (inactive) | 2.13 µM (inactive) | 1.84 µM (inactive) | 2.42 µM (inactive) | 3.49 µM (inactive) | 2.25 µM (inactive) | 2.61 µM (inactive) | 3.19 µM (inactive) | 1.12 µM (inactive) | 4.39 µM (inactive) | 5.94 µM (inactive) |
| CCCCCCCCCCCCCCCCOCC(COP(=O)([O-])OCC[N+](C)(C)C)OCCCCCCCCCCCCCCCC (stereo not given) | > 100 µM (inactive) | > 100 µM (inactive) | > 100 µM (inactive) | > 100 µM (inactive) | > 100 µM (inactive) | > 100 µM (inactive) | > 100 µM (inactive) | > 100 µM (inactive) | – | > 100 µM (inactive) | > 100 µM (inactive) | > 100 µM (inactive) | > 100 µM (inactive) | > 100 µM (inactive) | > 100 µM (inactive) | > 100 µM (inactive) | > 100 µM (inactive) | > 100 µM (inactive) | > 100 µM (inactive) | > 10 µM (inactive) |
| C=C1C(=O)OC2/C=C(\C)CC/C=C(/C)CC(OC(=O)/C(=C/CO)CO)C12 (stereo not given) | 27.2 µM (inactive) | 26.7 µM (inactive) | 32.4 µM (inactive) | 25 µM (inactive) | 65 µM (inactive) | 20.1 µM (inactive) | 24.5 µM (inactive) | 3.33 µM (inactive) | 18.1 µM (inactive) | 17.3 µM (inactive) | 33.5 µM (inactive) | 16.8 µM (inactive) | 64.3 µM (inactive) | 23 µM (inactive) | 18.9 µM (inactive) | 28.4 µM (inactive) | 33.6 µM (inactive) | 45.4 µM (inactive) | 23.2 µM (inactive) | 66.2 µM (inactive) |
| Nc1c(C(=O)Nc2ccc(C3=NCCN3)cc2)cccc1C(=O)Nc1ccc(C2=NCCN2)cc1 | > 100 µM (inactive) | > 100 µM (inactive) | 65.3 µM (inactive) | > 100 µM (inactive) | > 100 µM (inactive) | > 100 µM (inactive) | > 100 µM (inactive) | > 100 µM (inactive) | – | > 100 µM (inactive) | > 100 µM (inactive) | > 100 µM (inactive) | > 100 µM (inactive) | > 71.6 µM (inactive) | > 100 µM (inactive) | > 100 µM (inactive) | > 100 µM (inactive) | > 64.9 µM (inactive) | > 100 µM (inactive) | > 100 µM (inactive) |
| COc1cc(/C=C2\C(=O)N(C(=O)Cc3ccccc3)N=C2C)cc(OC)c1OC | > 100 µM (inactive) | > 100 µM (inactive) | > 100 µM (inactive) | > 100 µM (inactive) | > 100 µM (inactive) | > 100 µM (inactive) | > 100 µM (inactive) | > 100 µM (inactive) | > 100 µM (inactive) | > 100 µM (inactive) | – | – | > 100 µM (inactive) | > 100 µM (inactive) | > 100 µM (inactive) | > 100 µM (inactive) | > 100 µM (inactive) | > 100 µM (inactive) | > 100 µM (inactive) | > 100 µM (inactive) |
| CC(=O)Nc1ccc(C2=N/C(=C\c3ccc(Cl)c(Cl)c3)C(=O)O2)cc1 | > 100 µM (inactive) | > 100 µM (inactive) | > 100 µM (inactive) | > 100 µM (inactive) | > 100 µM (inactive) | > 100 µM (inactive) | > 100 µM (inactive) | > 100 µM (inactive) | > 100 µM (inactive) | > 100 µM (inactive) | > 100 µM (inactive) | > 100 µM (inactive) | > 100 µM (inactive) | > 100 µM (inactive) | > 100 µM (inactive) | > 100 µM (inactive) | > 100 µM (inactive) | 64.6 µM (inactive) | > 100 µM (inactive) | > 100 µM (inactive) |
| Cc1cc2nc3c(C)c4ccccc4c(C)n3c2cc1C | 2.2 µM (inactive) | 3.85 µM (inactive) | 1.73 µM (inactive) | 3.66 µM (inactive) | 4.02 µM (inactive) | 1.98 µM (inactive) | 1.56 µM (inactive) | 3.22 µM (inactive) | 2.61 µM (inactive) | 2.26 µM (inactive) | 2.05 µM (inactive) | 4.14 µM (inactive) | 1.79 µM (inactive) | 3.33 µM (inactive) | 2.94 µM (inactive) | 3.27 µM (inactive) | 4.35 µM (inactive) | 4.97 µM (inactive) | 3.21 µM (inactive) | 3.9 µM (inactive) |
| CCN(CC)c1c(C)c(C(=O)OC)nn1-c1ccccc1 | 70.3 µM (inactive) | 81.3 µM (inactive) | > 100 µM (inactive) | > 89.7 µM (inactive) | > 72.1 µM (inactive) | > 96.6 µM (inactive) | > 100 µM (inactive) | 35.2 µM (inactive) | – | 32.8 µM (inactive) | > 100 µM (inactive) | > 100 µM (inactive) | > 100 µM (inactive) | > 43.7 µM (inactive) | > 44.7 µM (inactive) | > 100 µM (inactive) | > 100 µM (inactive) | > 100 µM (inactive) | 23.2 µM (inactive) | 97.5 µM (inactive) |

Reference: ChEMBL document CHEMBL1201862, “PubChem BioAssay data set” (2004)
